Data as given in US20230365558A1, “TETRAHYDROISOQUINOLINE DERIVATIVE AND USE THEREOF” (MEDSHINE DISCOVERY INC., priority 2020, published 2023).
Read-outs that look alike come from different tables or passages of the source.

Legend:
[1] = Pharmacokinetic evaluation in CD-1 mice; conditions: for Clearance rate CL / Concentration integral AUC / Half-life T1/2 / Bioavailability F: CD-1 mice; for AUC / clearance / half-life / bioavailability: male, CD-1, mouse, in vivo
Description: Experimental objective: To study the pharmacokinetic parameters of the compounds in CD-1 mice
Animal experimental design: Male CD-1 mice (28.08 to 29.01 g, 6 to 7 weeks old), purchased from Shanghai Family Planning Research Institute, n=2/group, 4 mice in total; blood collection time points (h): 0.083 (intravenous injection only), 0.25 (intragastric administration only), 0.5, 1, 2, 4, 8, 10 and 24; compound dose by tail vein injection: 1 mg/kg; single dose by intragastric administration: 5 mg/kg; intravenous and intragastric administration vehicles: 20% N,N-dimethylacetamide aqueous solution, 20% hydroxypropyl-β-cyclodextrin aqueous solution, 5% DMSO/50% PEG400/45% water for injection or 10% Solutol/30% PEG400/60% water for injection. All animals had free access to water during the experiment, fasted overnight before administration, and resumed food supply 4 hours after administration. The entire animal experiment complied with the Institutional Animal Care and Use Committee (IACUC) animal welfare.
Sample collection and storage: After administration, approximately 0.03 mL of blood was collected from the saphenous vein of the mouse at each time point into a pre-frozen commercial EDTA-K2 tube, and placed on wet ice until centrifugation. Blood samples were centrifuged at 4° C., 3,200 g for 10 min. Plasma was collected separately, transferred to a pre-labeled 96-well plate, fast frozen on dry ice, and stored at −70±10° C. until LC-MS/MS analysis.
Pre-treatment of plasma samples: 3 μL of unknown, standard curve, QC, diluted QC and single and double blank samples were taken and placed in 1.5 mL tubes, and 60 μL of internal standard solution (internal standard: Labetalol 100 ng/mL acetonitrile solution, double blank with the same volume of pure acetonitrile) was added. The samples were vortexed for at least 15 seconds, and centrifuged at 4° C., 12,000 g for 15 min. 50 μL of the supernatant was taken and placed on a clean 96-well plate, and 200 μL of 70% acetonitrile was added. The plate was vortex at 800 rpm for 10 min, and centrifuged at 4° C., 3,220 g for 5 min. 2.0 μL of the supernatant was taken for LC-MS/MS analysis. 10-fold sample dilution procedure: 2 μL of the sample was added to 18 μL of blank matrix; 2-fold sample dilution procedure: 2 μL of the sample was added to 2 μL of blank matrix. Plasma was processed in the same manner as undiluted samples. The linear range was 4.00 to 6000 nM. Plasma concentrations would be analyzed with Triple Quad 6500 Plus, and pharmacokinetic parameters would be calculated with Phoenix WinNonlin 6.3.

[2] = biological target: PRMT5 enzyme (Homo sapiens (Human), UniProt O14744); test: PRMT5 enzyme inhibitory activity assay (LANCE Ultra TR-FRET); format: biochemical
Description: Experimental objective: To test the inhibitory effect of compounds on PRMT5 enzyme activity
Experimental materials: PRMT5 enzyme
The plate was incubated at 25° C. for 30 min, then added with substrate, and reacted at 25° C. for 90 min. After 90 min, the detection reagent was added to the 384-well plate using PerkinElmer LANCE Ultra TR-FRET standard method to combine with the enzyme-substrate reaction product. […] Raw data were used to calculate the inhibition rate of the test compounds using the following equation: […]
(§1) The inhibition rates were imported into Excel separately to calculate the inhibition rates of compounds at different concentrations, and then XLfit software was used to plot inhibition curves and calculate relevant parameters, including minimum inhibition rate, maximum inhibition rate and IC50.

[3] = test system: Z-138 non-Hodgkin's lymphoma cells; test: In vitro anti-proliferation assay of Z-138 cells (CellTiter-Glo, 6 days); format: cell-based, human; conditions: read-out: IC50 (nM), in vitro anti-proliferative activity on Z-138 tumor cells
Description: The plate was incubated at 37° C., CO2 and 100% relative humidity for 6 days. Samples were processed using Promega CellTiter-Glo Luminescent Cell Viability Assay Kit (Promega-G7571) standard method, and the luminescent signal was detected on a TECAN Spark®10M plate reader. Raw data were used to calculate the inhibition rate of the test compounds using the following equation: […]
as §1

[4] = test system: MDA-MB-468 human breast cancer cells; test: Anti-proliferative activity on MDA-MB-468 cells (CellTiter-Glo, 7 days); format: cell-based; conditions: read-out: IC50 (nM), in vitro anti-proliferative activity on MDA-MB-468 tumor cells
Description: CellTiter-Glo (chemiluminescent cell viability detection reagent, purchased from Promega).
MDA-MB-468 cells were planted in a white 384-well plate with 40 μL of cell suspension per well, which contained 1000 MDA-MB-468 cells. The cell plate was cultured in a CO2 incubator overnight. […] 78 μL of culture medium was added to a middle plate, and then 2 μL of gradient diluted compound per well was transferred to the middle plate according to the corresponding position. After being thoroughly mixed, 10 μL per well was transferred to the cell plate. […] The cell plate was cultured in a CO2 incubator for 7 days. Another cell plate was prepared, and the signal value was read on the day of administration as the maximum value (Max value in the equation below) to participate in data analysis. 10 μL of chemiluminescent cell viability detection reagent per well was added to the cell plate, and the plate was incubated at room temperature for 10 min to stabilize the luminescent signal. A multi-label analyzer was used for reading. After the incubation of the cell plate with the compound was completed, 10 μL of chemiluminescent cell viability detection reagent per well was added to the cell plate, and the plate was incubated at room temperature for 10 min to stabilize the luminescent signal. A multi-label analyzer was used for reading.

[5] = injection administration (1 mg/kg)

Chain of PRMT5 enzyme (O14744 whole entry): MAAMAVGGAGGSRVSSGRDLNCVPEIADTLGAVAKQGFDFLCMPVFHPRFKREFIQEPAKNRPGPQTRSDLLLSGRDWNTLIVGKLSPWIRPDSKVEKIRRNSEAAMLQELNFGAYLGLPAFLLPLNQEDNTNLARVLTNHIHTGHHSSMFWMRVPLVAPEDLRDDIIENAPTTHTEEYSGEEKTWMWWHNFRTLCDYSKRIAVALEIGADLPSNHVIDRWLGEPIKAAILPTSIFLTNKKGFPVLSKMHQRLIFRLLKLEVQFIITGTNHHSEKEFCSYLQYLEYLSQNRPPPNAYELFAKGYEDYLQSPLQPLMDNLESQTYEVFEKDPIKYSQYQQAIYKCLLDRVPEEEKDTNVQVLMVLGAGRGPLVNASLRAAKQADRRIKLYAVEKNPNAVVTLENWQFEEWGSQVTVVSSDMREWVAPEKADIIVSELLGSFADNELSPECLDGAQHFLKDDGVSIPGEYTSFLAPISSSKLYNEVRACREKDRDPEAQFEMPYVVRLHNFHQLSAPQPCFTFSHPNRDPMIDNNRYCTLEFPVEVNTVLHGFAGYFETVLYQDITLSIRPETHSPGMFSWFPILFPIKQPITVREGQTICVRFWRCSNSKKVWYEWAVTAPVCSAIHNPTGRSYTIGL
Chain of PRMT5 enzyme (Q9BQA1 whole entry partner): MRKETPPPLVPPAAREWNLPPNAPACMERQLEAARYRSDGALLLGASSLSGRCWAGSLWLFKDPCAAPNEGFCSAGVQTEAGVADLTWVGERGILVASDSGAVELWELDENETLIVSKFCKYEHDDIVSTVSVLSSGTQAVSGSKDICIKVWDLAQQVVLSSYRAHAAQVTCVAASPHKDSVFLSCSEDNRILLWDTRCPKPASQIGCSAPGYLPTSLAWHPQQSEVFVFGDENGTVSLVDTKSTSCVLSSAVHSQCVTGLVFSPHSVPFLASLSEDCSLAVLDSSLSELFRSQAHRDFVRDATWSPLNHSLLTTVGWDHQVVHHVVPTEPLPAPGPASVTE

## O=C(NC[C@H](O)CN1CCc2ccccc2C1)c1ccc2c(c1)NC(=O)C1(CCCC1)O2 [Compound 2]
[1]; [5]
  Clearance rate CL: 39.7 mL/min/kg
  Concentration integral AUC: 0.967 µM·h
  Half-life T1/2: 33.6 min
[1]; oral administration (5 mg/kg)
  Bioavailability F: 8.6%
  Concentration integral AUC: 0.417 µM·h
[2]
  IC50: 128 nM
[3]
  IC50: 24 nM

## O=C(NC[C@H](O)CN1CCc2ccccc2C1)c1ccc2c(c1)NC(=O)C1(CCCCC1)O2 [Compound 3]
[1]; [5]
  Clearance rate CL: 78.1 mL/min/kg
  Concentration integral AUC: 0.474 µM·h
  Half-life T1/2: 9.6 min
[1]; oral administration (5 mg/kg)
  Bioavailability F: 7.2%
  Concentration integral AUC: 0.171 µM·h
[2]
  IC50: 18 nM
[3]
  IC50: 78 nM

## O=C(NC[C@H](O)CN1CCc2ccccc2C1)c1ccc2c(c1)NC(=O)C1(CCOCC1)O2 [Compound 4]
[1]; [5]
  Clearance rate CL: 63.3 mL/min/kg
  Concentration integral AUC: 0.583 µM·h
  Half-life T1/2: 16.2 min
[1]; oral administration (5 mg/kg)
  Bioavailability F: 21.5%
  Concentration integral AUC: 0.626 µM·h
[2]
  IC50: 22 nM

## O=C(NC[C@H](O)CN1CCc2ccccc2C1)c1cnc2c(c1)NC(=O)C1(CCC1)O2 [Compound 6]
[1]; [5]
  Clearance rate CL: 42.1 mL/min/kg
  Concentration integral AUC: 0.944 µM·h
  Half-life T1/2: 14.4 min
[1]; oral administration (5 mg/kg)
  Bioavailability F: 16.4%
  Concentration integral AUC: 0.773 µM·h
[3]
  IC50: 6 nM

## O=C(NC[C@H](O)CN1CCc2ccccc2C1)c1ccc2c(c1)NC(=O)C1(CC1)O2 [Compound 7]
[1]; [5]
  Clearance rate CL: 17.7 mL/min/kg
  Concentration integral AUC: 2.313 µM·h
  Half-life T1/2: 82.8 min
[1]; oral administration (5 mg/kg)
  Bioavailability F: 64.2%
  Concentration integral AUC: 7.419 µM·h
[3]
  IC50: 73 nM

## O=C(NC[C@H](O)CN1CCc2ccccc2C1)c1cnc2c(c1)NC(=O)C1(CC1)O2 [Compound 8]
[4]; Homo sapiens, 168 h
  IC50: 12 nM
[1]; iv, 1 mg/kg
  AUC: 0.875 µM·h
  clearance: 53.3 mL/min/kg
  half-life: 54.6 min
[1]; po, 5 mg/kg
  AUC: 1.03 µM·h
  bioavailability: 24.5%
[2]
  IC50: 15 nM
[3]; Homo sapiens, Z-138, 144 h
  IC50: 10 nM

## CC(C)N1CC2(C1)Oc1ccc(C(=O)NC[C@H](O)CN3CCc4ccccc4C3)cc1NC2=O [Compound 9]
[1]; 1 mg/kg
  AUC: 0.336 µM·h
  clearance: 107 mL/min/kg
  half-life: 129 min
[1]; po, 5 mg/kg
  AUC: 0.168 µM·h
  bioavailability: 10%
[2]
  IC50: 36 nM
[3]; Homo sapiens, Z-138, 144 h
  IC50: 100 nM

## O=C(NC[C@H](O)CN1CCc2ccccc2C1)c1ccc2c(c1)NC(=O)C1(CN(CC(F)(F)F)C1)O2 [Compound 10]
[1]; 1 mg/kg
  AUC: 0.785 µM·h
  clearance: 42.1 mL/min/kg
  half-life: 33 min
[1]; po, 5 mg/kg
  AUC: 0.572 µM·h
  bioavailability: 14.6%
[3]; Homo sapiens, Z-138, 144 h
  IC50: 23 nM

## CC(=O)N1CC2(C1)Oc1ccc(C(=O)NC[C@H](O)CN3CCc4ccccc4C3)cc1NC2=O [Compound 11]
[3]; Homo sapiens, Z-138, 144 h
  IC50: 88 nM

## COCCN1CC2(C1)Oc1ccc(C(=O)NC[C@H](O)CN3CCc4ccccc4C3)cc1NC2=O [Compound 13]
[3]; Homo sapiens, Z-138, 144 h
  IC50: 47 nM

## CS(=O)(=O)N1CC2(C1)Oc1ccc(C(=O)NC[C@H](O)CN3CCc4ccccc4C3)cc1NC2=O [Compound 14]
[3]; Homo sapiens, Z-138, 144 h
  IC50: 14 nM

## O=C(NC[C@H](O)CN1CCc2ccccc2C1)c1cc2c(nn1)OC1(CC1)C(=O)N2 [Compound 16]
[3]
  IC50: 90 nM

## O=C(NC[C@H](O)CN1CCc2ccccc2C1)c1ccc2c(c1)NC(=O)C1(CC(O)C1)O2 (some centres unmarked) [Compound 18]
[1]; 1 mg/kg
  AUC: 0.545 µM·h
  clearance: 71.3 mL/min/kg
  half-life: 24.6 min
[1]; po, 5 mg/kg
  AUC: 0.164 µM·h
  bioavailability: 6.02%
[3]; Homo sapiens, Z-138, 144 h
  IC50: 18 nM

## CCOC1CC2(C1)Oc1ccc(C(=O)NC[C@H](O)CN3CCc4ccccc4C3)cc1NC2=O (some centres unmarked) [Compound 21]
[3]; Homo sapiens, Z-138, 144 h
  IC50: 18 nM

## CCOC1CC2(C1)Oc1ccc(C(=O)NC[C@H](O)CN3CCc4ccccc4C3)cc1NC2=O (some centres unmarked) [Compound 22]
[3]
  IC50: 12 nM

## COCCOC1CC2(C1)Oc1ccc(C(=O)NC[C@H](O)CN3CCc4ccccc4C3)cc1NC2=O (some centres unmarked) [Compound 23]
[2]
  IC50: 18 nM
[3]; Homo sapiens, Z-138, 144 h
  IC50: 23 nM

## COCCOC1CC2(C1)Oc1ccc(C(=O)NC[C@H](O)CN3CCc4ccccc4C3)cc1NC2=O (some centres unmarked) [Compound 24]
[2]
  IC50: 15 nM
[3]
  IC50: 22 nM

## CC(C)OC1CC2(C1)Oc1ccc(C(=O)NC[C@H](O)CN3CCc4ccccc4C3)cc1NC2=O (some centres unmarked) [Compound 26]
[3]; Homo sapiens, Z-138, 144 h
  IC50: 22 nM

## O=C1CC2(C1)Oc1ccc(C(=O)NC[C@H](O)CN3CCc4ccccc4C3)cc1NC2=O [Compound 27]
[3]; Homo sapiens, Z-138, 144 h
  IC50: 4 nM

## O=C(NC[C@H](O)CN1CCc2ccccc2C1)c1ccc2c(c1)NC(=O)C1(CC(F)(F)C1)O2 [Compound 28]
[3]; Homo sapiens, Z-138, 144 h
  IC50: 10 nM

## O=C(NC[C@H](O)CN1CCc2ccccc2C1)c1cnc2c(c1)NC(=O)C1(CC(F)(F)C1)O2 [Compound 29]
[1]; [5]
  Clearance rate CL: 37.9 mL/min/kg
  Concentration integral AUC: 0.981 µM·h
  Half-life T1/2: 35.4 min
[1]; oral administration (5 mg/kg)
  Bioavailability F: 8.99%
  Concentration integral AUC: 0.441 µM·h
[2]
  IC50: 16 nM
[3]
  IC50: 6 nM

## O=C(NC[C@H](O)CN1CCc2ccccc2C1)c1cc2c(cc1F)OC1(CC1)C(=O)N2 [Compound 32]
[3]; Homo sapiens, Z-138, 144 h
  IC50: 19 nM

## O=C(NC[C@H](O)CN1CCc2ccccc2C1)c1ccc2c(c1)NC(=O)[C@@]1(CCOC1)O2 [Compound 35]
[2]
  IC50: 11 nM
[3]
  IC50: 22 nM

## O=C(NC[C@H](O)CN1CCc2ccccc2C1)c1ccc2c(c1)NC(=O)[C@]1(CCOC1)O2 [Compound 36]
[1]; [5]
  Clearance rate CL: 66.3 mL/min/kg
  Concentration integral AUC: 0.576 µM·h
  Half-life T1/2: 13.2 min
[1]; oral administration (5 mg/kg)
  Bioavailability F: 37.9%
  Concentration integral AUC: 1.092 µM·h
[2]
  IC50: 7 nM
[3]
  IC50: 7 nM

## O=C(NC[C@H](O)CN1CCc2ccccc2C1)c1ccc2c(c1)NC(=O)C1(CS(=O)(=O)C1)O2 [Compound 37]
[2]
  IC50: 8 nM
[3]
  IC50: 8 nM

## O=C(NC[C@H](O)CN1CCc2ccccc2C1)c1ccc2c(c1)NC(=O)C1(CSC1)O2 [Compound 38]
[3]; Homo sapiens, Z-138, 144 h
  IC50: 18 nM

## O=C(NC[C@H](O)CN1CCc2ccccc2C1)c1cnc2c(c1)NC(=O)C21CC1 [Compound 42]
[3]
  IC50: 53 nM

## COc1cc2c(cc1C(=O)NC[C@H](O)CN1CCc3ccccc3C1)NC(=O)C1(CC1)O2 [Compound 47]
[2]
  IC50: 42 nM
[3]
  IC50: 66.8 nM

## O=C(NC[C@H](O)CN1CCc2ccccc2C1)c1ccc2c(c1)NC(=O)[C@H]1C[C@@H]21 [Compound 49b]
[4]
  IC50: 4.2 nM
[2]
  IC50: 26.2 nM
[3]
  IC50: 13.1 nM
